Results on 5 compounds are retold here after US20240383874A1, “BENZENE RING DERIVATIVE, AND COMPOSITION AND PHARMACEUTICAL USE THEREOF” (Xizang Haisco Pharmaceutical Co., Ltd., priority 2020, published 2024).

SMILES strings stand for the structures. Read-outs that look alike come from different tables or passages of the source. Bounds are passed on as bounds.

As a reminder, the bioavailability is the share of a dose that reaches the circulation, judged against a reference dose that is usually intravenous. A higher bioavailability goes with good availability. In general, DC50 refers to the concentration giving 50% degradation. Lower therefore signals degradation at low concentration.

A short description of data set [1]: Pharmacokinetic test in beagle dogs. As to conditions: dog, plasma, oral; male beagle dogs, i.v. 1 mg/kg and i.g. 10 mg/kg, single dose. It is filed as in vivo. The protocol:
Test objective: a single dose of test compounds was administered to beagle dogs intravenously and intragastrically, and the concentrations of the test compounds in plasma of the beagle dogs were measured to evaluate pharmacokinetic characteristics of the test compounds in the beagle dogs.
Test animals: male beagle dogs, about 8-11 kg, 6 beagle dogs/compound, purchased from Beijing Marshall Biotechnology Co., Ltd.
Test method: on the day of the test, 6 beagle dogs were randomly grouped according to their body weights. The animals were fasted with water available for 12 to 14 hours one day before the administration of a test compound, and were fed 4 hours after the administration. The administration was performed according to Table 10.
Sampling: before and after the administration, 1 ml of blood was taken from the limb veins, and placed in an EDTAK2 centrifuge tube. Centrifugation was carried out at 5000 rpm at 4° C. for 10 min, and the plasma was collected.
Time points for blood collection: 0 min, 5 min, 15 min, 30 min, 1 h, 2 h, 4 h, 6 h, 8 h, 10 h, 12 h and 24 h. Before analysis and detection, all samples were stored at −80° C. The samples were analyzed quantitatively by LC-MS/MS.

For data set [2], the target named is T1, AR splice variant 7 (AR-V7) (Homo sapiens, UniProt P10275).
T1 construct: host or cells: 22RV1 prostate cancer cells
T1 sequence (P10275 1-644 isoform P10275-3): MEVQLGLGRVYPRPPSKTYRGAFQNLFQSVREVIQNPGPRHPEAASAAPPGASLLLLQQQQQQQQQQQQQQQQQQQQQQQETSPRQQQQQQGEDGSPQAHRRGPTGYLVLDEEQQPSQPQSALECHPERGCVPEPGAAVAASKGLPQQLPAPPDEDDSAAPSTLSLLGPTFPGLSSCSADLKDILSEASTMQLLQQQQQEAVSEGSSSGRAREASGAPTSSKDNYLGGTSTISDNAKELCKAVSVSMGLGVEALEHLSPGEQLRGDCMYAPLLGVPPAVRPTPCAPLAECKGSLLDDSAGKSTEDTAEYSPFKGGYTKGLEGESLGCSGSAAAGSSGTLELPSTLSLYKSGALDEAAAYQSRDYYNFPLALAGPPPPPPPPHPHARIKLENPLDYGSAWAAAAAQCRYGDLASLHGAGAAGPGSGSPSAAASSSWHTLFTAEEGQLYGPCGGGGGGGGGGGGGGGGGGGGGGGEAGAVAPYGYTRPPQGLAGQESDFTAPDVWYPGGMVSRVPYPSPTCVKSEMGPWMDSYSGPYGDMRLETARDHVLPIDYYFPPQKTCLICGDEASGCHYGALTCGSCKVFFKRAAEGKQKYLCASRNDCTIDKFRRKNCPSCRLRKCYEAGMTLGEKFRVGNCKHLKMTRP
In words: Degradation experiment on AR splice variant 7 (AR-V7) in 22RV1 cells. It is filed as cell-based. The note with it: 24 h, degradation rate 50% relative to vehicle control. The protocol: Prostate cancer cells 22RV1 were purchased from ATCC, the cell medium was 1640+10% FBS, and the cells were cultured in an incubator at 37° C. under 5% CO2. On day 1, the cells in an exponential phase were collected. With a 1% css-FBS phenol red-free medium, the cell suspension was adjusted to a corresponding concentration and plated into a 6-well plate at 1 mL/well and 300000 cells/well. The next day, a 1% css-FBS phenol-free medium containing the compound to be tested was added, a 1% css-FBS phenol-free medium containing 0.2% DMSO was added to one well as DMSO vehicle control, and the 6-well plate was cultured in an incubator at 37° C. under 5% CO2. After 24 h, the cells were digested with pancreatin and collected into a 1.5 mL centrifuge tube. […] The supernatant protein samples were collected, and protein quantification was performed by a BCA method. AR-V7 was detected using fully automatic protein expression quantitative analysis, which involved diluting the protein to be tested to 2 mg/mL. […] The prepared reagents were successively added to an assay plate according to instructions of the kit and detected on an instrument. Western blot band processing was performed using “Compass for SW”, a fully automatic protein expression quantitative analysis software, in which western blot bands were automatically simulated based on signal values. […]

Data set [3] concerns 22RV1 cells. Nature of the data set: Experiment 1 on inhibiting 22RV1 cell proliferation (5 days, CellTiter-Glo). The note with it: 1% css-FBS phenol red-free medium, incubated with compound 5 days, read-out: IC50 values on proliferation inhibition of 22RV1 cells. In kind it is cell-based. The method, then: Prostate cancer cells 22RV1 were purchased from ATCC, the cell medium was RPMI 1640+10% FBS, and the cells were cultured in an incubator at 37° C. under 5% CO2. On day 1, the cells in an exponential phase were collected. With a 1% css-FBS phenol red-free medium, the cell suspension was adjusted to a corresponding concentration, plated at 2000 cells/well and incubated overnight. On day 2, compounds at different concentrations were added, and the plate was placed in the incubator and incubated for further 5 days. After the incubation was completed, according to operation instructions for a CellTiter-Glo kit (Promega, G7573), 50 μL of CTG solution, which was already pre-melted and equilibrated to room temperature, was added to each well, and the mixtures were uniformly mixed for 2 min using a microplate shaker. The plate was placed at room temperature for 10 min, and then fluorescence signal values were measured using a microplate reader (PHERAstar FSX). The results were processed according to formula (1), the survival rate of the compound at different concentrations was calculated, and the IC50 value of the compound with a survival rate of 50% was calculated using origin9.2 software with DoseResp function, wherein RLUcompound was the readout of the treated group, and RLUcontrol was the average value of the DMSO vehicle control group.
In general terms: In ATP-based viability assays light output follows the ATP content of the culture.

As to `COc1c(Cl)cc(C(C)(C)c2ccc(OCc3ccnc(N4CCC(CN5CCC(C6CCN(c7ccc8c(c7)n(C)c(=O)n8C7CCC(=O)NC7=O)CC6)CC5)CC4)n3)cc2)cc1C#N` (stereo not shown) [Compound 97, 3-chloro-5-(2-(4-((2-(4-((1′-(1-(2,6-dioxopiperidin-3-yl)-3-methyl-2-oxo-2,3-dihydro-1H-benzo[d]imidazol-5-yl)-[4,4′-bipiperidin]-1-yl)methyl)piperidin-1-yl)pyrimidin-4-yl)methoxy)phenyl)propan-2-yl)-2-methoxybenzonitrile], the bioavailability in data set [1] was > 15%.

Turning to `COc1c(Cl)cc(C(C)(C)c2ccc(OCc3ccnc(N4CCC(CN5CCC(C6CCN(c7ccc(C8CCC(=O)NC8=O)cc7)CC6)CC5)CC4)n3)cc2)cc1C#N` (stereo not shown) [Compound 119, 3-chloro-5-(2-(4-((2-(4-((1′-(4-(2,6-dioxopiperidin-3-yl)phenyl)-[4,4′-bipiperidin]-1-yl)methyl)piperidin-1-yl)pyrimidin-4-yl)methoxy)phenyl)propan-2-yl)-2-methoxybenzonitrile], half-maximal degradation in data set [2] (DC50) was put at 3710 nM.

With `O=C1CCC(N2C(=O)c3ccc(N4CCN(CC5CCN(S(=O)(=O)Nc6ccc(Cl)cc6C(=O)Nc6ccc(C(F)(F)F)cc6Cl)CC5)CC4)cc3C2=O)C(=O)N1` (stereo not shown) [Compound 1, 5-chloro-N-(2-chloro-4-(trifluoromethyl)phenyl)-2-{[(4-[(4-(2-(2,6-dioxopiperidin-3-yl)-1,3-dioxo-2,3-dihydro-1H-isoindol-5-yl)piperazin-1-yl)methyl]piperidin-1-yl)sulfonyl]amino}benzamide], the IC50 in data set [3] is 835 nM; in data set [3] (Homo sapiens, 22Rv1, 120 h), 500 to 1500 nM.

For the compound `O=C1CCC(N2C(=O)c3ccc(N4CCC(CN5CCN(S(=O)(=O)Nc6ccc(Cl)cc6C(=O)Nc6ccc(C(F)(F)F)cc6Cl)CC5)CC4)cc3C2=O)C(=O)N1` (stereo not shown) [Compound 3, 5-chloro-N-(2-chloro-4-(trifluoromethyl)phenyl)-2-((4-((1-(2-(2,6-dioxopiperidin-3-yl)-1,3-dioxoisoindolin-5-yl)piperidin-4-yl)methyl)piperazine)-1-sulfonamido)benzamide], the IC50 in data set [3] worked out at 1240 nM.

Consider `O=C1CCC(N2C(=O)c3ccc(N4CC(N5CCN(S(=O)(=O)Nc6ccc(Cl)cc6-c6nc7cc(C(F)(F)F)cc(Cl)c7[nH]6)CC5)C4)cc3C2=O)C(=O)N1` (stereo not shown) [Compound 2, N-(4-chloro-2-(7-chloro-5-(trifluoromethyl)-1H-1,3-benzodiazol-2-yl)phenyl)-4-(1-(2-(2,6-dioxopiperidin-3-yl)-1,3-dioxo-2,3-dihydro-1H-isoindol-5-yl)azetidin-3-yl)piperazine-1-sulfonamide], for which the IC50 in data set [3] was 594 nM; in data set [3] (Homo sapiens, 22Rv1, 120 h) it was 500 to 1500 nM.
